Data from patent US11382889B2, “NRF2 activators for the prevention and/or treatment of axonal degeneration” (priority 2018, dated 2022).

System: X-ALD fibroblasts
Test: NRF2 response (HMOX1, NQO1, GCLC expression) in X-ALD patient fibroblasts incubated with excess VLCFA
Assay type: cell-based, human
Details: normalized to RPLP0, fold change to vehicle
Protocol: This means that the NRF-2 target genes HMOX1, NQO1 and GCLC increase their expression when incubated with excess VLCFA. See FIG. 4 (n=8 per genotype and condition). Gene expression normalized relative to RPLP0. Quantification depicted as fold change to vehicle-treated (Veh) fibroblasts.

| Compound | NRF2 response: expression of NRF-2 target genes HMOX1, NQO1 and GCLC |
| --- | --- |
| Cn1cc(C2=C(c3ccc(Cl)cc3Cl)C(=O)NC2=O)c2ccccc21 [SB216763] | restore a normal NRF2 response |
| Cc1c[nH]c(-c2cnc(NCCNc3ccc(C#N)cn3)nc2-c2ccc(Cl)cc2Cl)n1 [CT99021] | restore a normal NRF2 response |
